Test results reported in patent US20190133122A1, “FUNGICIDAL OR BACTERICIDAL COMPOSITION AND METHOD FOR CONTROLLING DISEASE” (Nissan Chemical Corporation, priority 2016, published 2019).
Structures can show the parent of a compound that is named as a salt.

These compounds were tested on cucumber gray mold fungus (Botrytis cinerea) (assay: Preventive test against gray mold (sprayed cucumber cotyledon, cut leaf inoculated)). Settings: 1 ppm, active ingredient B alone; cucumber leaf, 20° C., 3 days after inoculation.
Format: in vivo
Description: Such an agent was diluted with water to a predetermined concentration to obtain a test solution. Then, cucumber (variety: Sagami-hanjiro) was planted in a plastic pot of 90 cm^3, and in the cotyledon stage, 5 ml of the obtained test solution, was sprayed by a spray gun and air-dried. Thereafter, the treated leaf was cut off and placed in a plastic container which filled approximately 0.5 cm in depth water. A suspension of conidia of cucumber gray mold fungus (Botrytis cinerea) and a dissolved PDA culture medium were mixed at a ratio of 1:1 (mass ratio), and the mixture was dropped to inoculate the treated leaf with 30 μl. After the inoculation, the plastic container was sealed and left at 20° C. for 3 days, the ratio of the formed lesion occupying the inoculated leaf was measured, and the preventive value (observed value) was calculated in accordance with the following calculation formula.
Preventive value=[1−(treated plot lesion area ratio/untreated plot lesion area ratio)]×100
Further, from the preventive value at each agent concentration, a theoretical value expected by treatment of the mixing (theoretical value) was calculated by using the Colby method (Colby S. R. 1967, Weeds 15, 20-22), in order to analyze synergy. The calculation method is as follows.
X: preventive value of A agent (test solution obtained from active ingredient A) at x concentration
Y: preventive value of B agent (test solution obtained from active ingredient B) at y concentration
E: theoretical value expected by treatment of the mixture of A agent and B agent.
In the observed value and the theoretical value, calculated as the above, the obtained result is analyzed to be synergy if the observed value is larger than the theoretical value, to be antagonism if the theoretical value is larger than the observed value, and to be an additive effect if the observed value and the theoretical value are the same.

| Compound | Preventive value |
| --- | --- |
| CON(C(=O)c1cn(C)nc1C(F)F)C(C)Cc1c(Cl)cc(Cl)cc1Cl (stereo not shown) [Compound No. C49, pydiflumetofen] | 45 |
| O=C(Nc1ccccc1-c1ccc(F)c(F)c1)c1nccnc1C(F)(F)F [Compound No. C50, pyraziflumid] | 70 |

Same assay, conditions: 5 ppm, active ingredient B alone; cucumber leaf, 20° C., 3 days after inoculation

| Compound | Preventive value |
| --- | --- |
| C=CCSC(=O)n1c(N)c(-c2ccccc2C)c(=O)n1C(C)C [Compound No. H50, fenpyrazamine] | 56 |

Same assay, conditions: 10 ppm, active ingredient B alone; cucumber leaf, 20° C., 3 days after inoculation

| Compound | Preventive value |
| --- | --- |
| CNC(=O)/C(=N/OC)c1ccccc1CO/N=C(C)/C=C/c1c(Cl)cccc1Cl [C25, fenaminstrobin] | 55 |
| CC(O)(Cn1cncn1)c1ccc(Oc2ccc(Cl)cc2)cc1C(F)(F)F (stereo not shown) [H51, mefentrifluconazole] | 53 |
| CC1(C)N=C(c2cnc3ccccc3c2)c2ccccc2C1(F)F [M20, quinofumelin] | 60 |

Same assay, conditions: 100 ppm, active ingredient B alone; cucumber leaf, 20° C., 3 days after inoculation

| Compound | Preventive value |
| --- | --- |
| COCC(=O)N(c1c(C)cccc1C)[C@H](C)C(=O)OC [A05, metalaxyl-M] | 5 |
| CO/C=C(/C(=O)OC)c1ccccc1CO/N=C(C)/C=C/c1ccc(Cl)cc1 [C22, enoxastrobin] | 85 |
| COC(=O)N(OC)c1ccccc1COc1nc(Cl)c(Cl)cc1Cl [C38, triclopyricarb] | 69 |
| C[C@H]1O[C@H](O[C@H]2[C@H](O)[C@@H](O)[C@@H](O)[C@H](O)[C@@H]2O)[C@@H](N)C[C@@H]1NC(=N)C(=O)O [D05, kasugamycin] | 28 |
| CN1OC(c2ccc(Cl)cc2)CC1(C)c1cccnc1 (stereo not shown) [H33, pyrisoxazole] | 9 |
| C#CCOc1ccc(CCNC(=O)C(OCC#C)c2ccc(Cl)cc2)cc1OC (stereo not shown) [I08, mandipropamid] | 10 |
| [Cl-].[Cu+2].[Cu+2].[OH-].[OH-].[OH-] [L08, copper oxychloride] | 5 |
| Cn1c(=O)c2sc3c(=O)n(C)c(=O)c3sc2c1=O [M23, dipymetitrone] | 54 |
| CCSS(=O)(=O)CC [M34, ethylicin] | 10 |
| Bacillus subtilis D747 strain [G13] | 28 |
| basic copper sulfate [L10] | 18 |
| fosetyl-aluminium [M08] | 10 |

Same assay, conditions: Botrytis cinerea, 72 h, read-out: Preventive value

| Compound | pest or weed control at 100 ppm | pest or weed control at 10 ppm | pest or weed control at 1 ppm |
| --- | --- | --- | --- |
| COCC(=O)N(c1c(C)cccc1C)N1CCOC1=O [A07, oxadixyl] | 10% | – | – |
| Cc1cccc(-n2nnn(C)c2=O)c1COc1ccn(-c2ccc(Cl)cc2)n1 [C51, 1-(2-[([1-(4-chlorophenyl)-1H-pyrazol-3-yl]oxy)-methyl]-3-methylphenyl)-4-methyl-1,4-dihydro-5H-tetrazol-5-one] | 48% | – | – |
| Clc1ccc(CSC(Cn2cncn2)=Nc2ccc(Cl)cc2Cl)cc1 [H21, imibenconazole] | – | 20% | – |
| S=C(S)NCCNC(=S)S [L35, zineb] | 23% | – | – |
| Cc1nc2c(F)c(F)ccc2cc1Oc1cccc(F)c1C(C)(C)O [M21, 2-(2-[(7,8-difluoro-2-methylquinolin-3-yl)oxy]-6-fluoro-phenyl)propan-2-ol] | – | – | 65% |

Same assay, conditions: Botrytis cinerea, 72 h; 10 ppm, active ingredient B alone; cucumber leaf, 20° C., 3 days after inoculation; read-out: Preventive value

| Compound | pest or weed control at 10 ppm |
| --- | --- |
| COC(=O)Nc1nc2ccccc2[nH]1 [B02, carbendazim] | 85% |
| Cc1nnc(Cl)c(-c2c(F)cccc2F)c1-c1ccccc1 [M44, 3-chloro-4-(2,6-difluorophenyl)-6-methyl-5-phenyl-pyridazine] | 28% |

Same assay, conditions: Botrytis cinerea, 72 h; 100 ppm, active ingredient B alone; cucumber leaf, 20° C., 3 days after inoculation; read-out: Preventive value

| Compound | pest or weed control at 100 ppm |
| --- | --- |
| Cc1cc(O)no1 [A10, hymexazol] | 10% |
| CCC(C)(NC(=O)c1cc(Cl)c(C)c(Cl)c1)C(=O)CCl (stereo not shown) [B08, zoxamide] | 15% |
| Cc1ccc(-c2c(Cl)nc(C#N)n2S(=O)(=O)N(C)C)cc1 [C41, cyazofamid] | 10% |
| [H]/N=C(/N)N[C@H]1[C@H](O)[C@@H](O)[C@H](O[C@@H]2O[C@@H](C)[C@](O)(C=O)[C@H]2O[C@@H]2O[C@@H](CO)[C@H](O)[C@@H](O)[C@@H]2NC)[C@@H](N/C(N)=N\[H])[C@@H]1O [D06, streptomycin] | 13% |
| CCCOC(=O)NCCCN(C)C [G12, propamocarb hydrochloride] | 15% |
| CCCC1COC(Cn2cncn2)(c2ccc(Cl)cc2Cl)O1 (stereo not shown) [H30, propiconazole] | 38% |
| CC(C)(C)C(=O)C(Oc1ccc(Cl)cc1)n1cncn1 (stereo not shown) [H37, triadimefon] | 38% |
| CCCOC/C(=N\c1ccc(Cl)cc1C(F)(F)F)n1ccnc1 [H39, triflumizole] | 10% |
| OCC1=C[C@H](N[C@H]2C[C@H](CO)[C@@H](O[C@@H]3O[C@H](CO)[C@@H](O)[C@H](O)[C@H]3O)[C@H](O)[C@H]2O)[C@H](O)[C@@H](O)[C@@H]1O [I01, validamycin] | 10% |
| COc1ccc(C(=CC(=O)N2CCOCC2)c2ccc(Cl)cc2)cc1OC [I05, dimethomorph] | 18% |
| CN(C)C(=S)SSC(=S)N(C)C [L21, thiram] | 28% |
| CCNC(=O)NC(=O)/C(C#N)=N/OC [M02, cymoxanil] | 13% |
